Assay results as given in patent publication US12195482B1 (Arcus Biosciences, Inc., priority 2022, dated 2025).

Legend:
p-AXL = target: T1, p-AXL (Homo sapiens, UniProt P30530); assay: Axl phosphorylation inhibition ELISA in HEK293T cells transfected with NanoLuc-tagged AXL; assay type: cell-based; details: 1 h compound incubation, media (OptiMEM)
T1 construct: expressed in transfected cells; host or cells: HEK293T
T1 sequence (P30530 26-894): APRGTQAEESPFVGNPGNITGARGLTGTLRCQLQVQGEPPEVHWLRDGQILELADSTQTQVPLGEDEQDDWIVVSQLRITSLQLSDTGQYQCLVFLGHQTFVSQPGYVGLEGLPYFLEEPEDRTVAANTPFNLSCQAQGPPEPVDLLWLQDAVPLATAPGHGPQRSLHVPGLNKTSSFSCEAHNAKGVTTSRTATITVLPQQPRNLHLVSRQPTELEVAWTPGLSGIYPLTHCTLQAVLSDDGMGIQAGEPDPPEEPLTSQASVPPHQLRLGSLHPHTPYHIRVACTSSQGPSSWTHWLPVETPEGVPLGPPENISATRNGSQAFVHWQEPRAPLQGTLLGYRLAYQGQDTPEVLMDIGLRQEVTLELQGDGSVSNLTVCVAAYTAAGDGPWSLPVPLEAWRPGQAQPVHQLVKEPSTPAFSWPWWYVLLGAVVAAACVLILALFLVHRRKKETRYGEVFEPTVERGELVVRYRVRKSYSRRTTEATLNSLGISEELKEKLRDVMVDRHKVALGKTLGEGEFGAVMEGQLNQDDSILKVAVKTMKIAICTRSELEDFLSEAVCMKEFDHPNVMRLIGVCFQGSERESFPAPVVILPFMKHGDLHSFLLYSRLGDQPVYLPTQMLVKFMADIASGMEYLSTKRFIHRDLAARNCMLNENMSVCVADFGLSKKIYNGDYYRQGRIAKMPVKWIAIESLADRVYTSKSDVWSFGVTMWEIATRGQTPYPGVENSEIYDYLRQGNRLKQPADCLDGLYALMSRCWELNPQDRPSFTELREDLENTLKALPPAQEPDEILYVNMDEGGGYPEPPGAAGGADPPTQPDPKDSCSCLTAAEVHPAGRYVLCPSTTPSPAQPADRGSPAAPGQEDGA
Procedure, shortened: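 HEK293T cells transiently transfected one day earlier with NanoLuc-tagged AXL were exposed to 22-point 2-fold compound dilutions for 1 h at 37° C (70,000 cells/well), then lysed. Lysates captured on anti-phospho-tyrosine coated plates for 2 h; bound p-AXL read by NanoLuc luminescence; IC50 from 4-parameter logistic fit.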

Axl = target: T2, Axl (Homo sapiens, UniProt P30530); assay: Biochemical potency, HTRF KinEASE-TK kinase assay; parameters: purchased Invitrogen; details: 5 nM AXL, 700 μM ATP
T2 sequence (P30530 26-894): T1 sequence (P30530 26-894)
Procedure, shortened: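 Compounds preincubated 1 h at RT with enzyme in 50 mM HEPES pH 7.4, 10 mM MgCl2, 0.01% BSA, 1 mM DTT; reactions then ran 2 h at RT with 5 nM AXL or 1 nM TYRO3/MER, 800 nM TK substrate-biotin, 700 μM ATP, 1% DMSO. HTRF 665/620 ratio read; percent activity calculated.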

SMILES	IC50 (p-AXL)	IC50 (Axl)
Cc1cnc(C)c(-c2ccc(-c3n[nH]c4ncc(-c5ccc6c(c5)CC[C@@H](N5C7COCC5C7)CC6)cc34)cc2)n1 [Example 65, 6-[(7S)-2-{3-[4-(3,6-Dimethylpyrazin-2-yl)phenyl]-1H-pyrazolo[3,4-b]pyridin-5-yl}-6,7,8,9-tetrahydro-5H-benzo[7]annulen-7-yl]-3-oxa-6-azabicyclo[3.1.1]heptane]	< 100 nM	< 100 nM
Cc1cnc(C)c(-c2ccc(-c3c[nH]c4ncc(-c5ccc6c(c5)CC[C@@H](N5C[C@@H]7C[C@H]5CO7)CC6)cc34)cc2)n1 [Example 62, (1S,4S)-5-[(7S)-2-{3-[4-(3,6-Dimethylpyrazin-2-yl)phenyl]-1H-pyrrolo[2,3-b]pyridin-5-yl}-6,7,8,9-tetrahydro-5H-benzo[7]annulen-7-yl]-2-oxa-5-azabicyclo[2.2.1]heptane]	< 100 nM	< 100 nM
Cc1cnc(C)c(-c2ccc(-c3n[nH]c4ncc(-c5ccc6c(c5)CC[C@@](C)(N5CCC[C@H]5C)CC6)cc34)nc2)n1 [Example 61, 2,5-Dimethyl-3-(6-{5-[(7S)-7-methyl-7-[(2R)-2-methylpyrrolidin-1-yl]-6,7,8,9-tetrahydro-5H-benzo[7]annulen-2-yl]-1H-pyrazolo[3,4-b]pyridin-3-yl}pyridin-3-yl)pyrazine]	< 100 nM	< 100 nM
Cc1cnc(C)c(-c2ccc(-c3n[nH]c4ncc(-c5ccc6c(c5)CC[C@@](C)(N5CCC[C@H]5C)CC6)cc34)cc2)n1 [Example 64, 2,5-Dimethyl-3-(4-{5-[(7S)-7-methyl-7-[(2R)-2-methylpyrrolidin-1-yl]-6,7,8,9-tetrahydro-5H-benzo[7]annulen-2-yl]-1H-pyrazolo[3,4-b]pyridin-3-yl}phenyl)pyrazine]	< 100 nM	< 100 nM
Cc1cnc(-c2ccc(-c3n[nH]c4ncc(-c5ccc6c(c5)CC[C@@H](N5C7COCC5C7)CC6)cc34)cc2)c(C)n1 [Example 190, 6-[(7S)-2-{3-[4-(3,5-Dimethylpyrazin-2-yl)phenyl]-1H-pyrazolo[3,4-b]pyridin-5-yl}-6,7,8,9-tetrahydro-5H-benzo[7]annulen-7-yl]-3-oxa-6-azabicyclo[3.1.1]heptane]	100 to 1000 nM	< 100 nM
Cc1ccc(C)c(-c2ccc(-c3c[nH]c4ncc(-c5ccc6c(c5)CC[C@@](C)(N5CCC[C@H]5C)CC6)cc34)cc2)n1 [Example 147, 3,6-Dimethyl-2-(4-{5-[(7S)-7-methyl-7-[(2R)-2-methylpyrrolidin-1-yl]-6,7,8,9-tetrahydro-5H-benzo[7]annulen-2-yl]-1H-pyrrolo[2,3-b]pyridin-3-yl}phenyl)pyridine]	< 100 nM	< 100 nM
Cc1cc(C)c(-c2ccc(-c3c[nH]c4ncc(-c5ccc6c(c5)CC[C@@H](N5C7COCC5C7)CC6)cc34)cc2)cn1 [Example 196, 6-[(7S)-2-{3-[4-(4,6-Dimethylpyridin-3-yl)phenyl]-1H-pyrrolo[2,3-b]pyridin-5-yl}-6,7,8,9-tetrahydro-5H-benzo[7]annulen-7-yl]-3-oxa-6-azabicyclo[3.1.1]heptane]	100 to 1000 nM	< 100 nM
Cc1ccc(C)c(-c2ccc(-c3n[nH]c4ncc(-c5ccc6c(c5)CC[C@@H](N5C[C@@H]7C[C@H]5CO7)CC6)cc34)cc2)n1 [Example 141, (1S,4S)-5-[(7S)-2-{3-[4-(3,6-Dimethylpyridin-2-yl)phenyl]-1H-pyrazolo[3,4-b]pyridin-5-yl}-6,7,8,9-tetrahydro-5H-benzo[7]annulen-7-yl]-2-oxa-5-azabicyclo[2.2.1]heptane]	< 100 nM	< 100 nM
Cc1ncccc1-c1ccc(-c2c[nH]c3ncc(-c4ccc5c(c4)CC[C@@H](N4C6COCC4C6)CC5)cc23)cc1 [Example 74, 6-[(7S)-2-{3-[4-(2-Methylpyridin-3-yl)phenyl]-1H-pyrrolo[2,3-b]pyridin-5-yl}-6,7,8,9-tetrahydro-5H-benzo[7]annulen-7-yl]-3-oxa-6-azabicyclo[3.1.1]heptane]	100 to 1000 nM	< 100 nM
Cc1cnc(-c2ccc(-c3n[nH]c4ncc(-c5ccc6c(c5)CC[C@@](C)(N5CCC[C@H]5C)CC6)cc34)cc2)c(C)n1 [Example 188, 3,5-Dimethyl-2-(4-{5-[(7S)-7-methyl-7-[(2R)-2-methylpyrrolidin-1-yl]-6,7,8,9-tetrahydro-5H-benzo[7]annulen-2-yl]-1H-pyrazolo[3,4-b]pyridin-3-yl}phenyl)pyrazine]	< 100 nM	< 100 nM

More lines, now with the values ahead:

IC50 (p-AXL)	IC50 (Axl)	SMILES
100 to 1000 nM	< 100 nM	Cc1ccc(-c2ccc(-c3c[nH]c4ncc(-c5ccc6c(c5)CC[C@@H](N5C7COCC5C7)CC6)cc34)cc2)c(C)n1 [Example 73, 6-[(7S)-2-{3-[4-(2,6-Dimethylpyridin-3-yl)phenyl]-1H-pyrrolo[2,3-b]pyridin-5-yl}-6,7,8,9-tetrahydro-5H-benzo[7]annulen-7-yl]-3-oxa-6-azabicyclo[3.1.1]heptane]
< 100 nM	< 100 nM	Cc1cccnc1-c1ccc(-c2c[nH]c3nnc(-c4ccc5c(c4)CC[C@@](C)(N4CCC[C@H]4C)CC5)cc23)cc1 [Example 18, 3-[(7S)-7-Methyl-7-[(2R)-2-methylpyrrolidin-1-yl]-5,6,8,9-tetrahydrobenzo[7]annulen-3-yl]-5-[4-(3-methylpyridin-2-yl)phenyl]-7H-pyrrolo[2,3-c]pyridazine]
100 to 1000 nM	< 100 nM	Cc1cnc(-c2ccc(-c3n[nH]c4ncc(-c5ccc6c(c5)CC[C@@](C)(N5CCC[C@H]5C)CC6)cc34)nc2)c(C)n1 [Example 60, 3,5-Dimethyl-2-(6-{5-[(7S)-7-methyl-7-[(2R)-2-methylpyrrolidin-1-yl]-6,7,8,9-tetrahydro-5H-benzo[7]annulen-2-yl]-1H-pyrazolo[3,4-b]pyridin-3-yl}pyridin-3-yl)pyrazine]
100 to 1000 nM	< 100 nM	Cc1ccc(C(F)(F)F)nc1-c1ccc(-c2c[nH]c3ncc(-c4ccc5c(c4)CC[C@@H](N4C6COC[C@H]4C6)CC5)cc23)cc1 [Example 146, (1R)-6-[(7S)-2-(3-{4-[3-Methyl-6-(trifluoromethyl)pyridin-2-yl]phenyl}-1H-pyrrolo[2,3-b]pyridin-5-yl)-6,7,8,9-tetrahydro-5H-benzo[7]annulen-7-yl]-3-oxa-6-azabicyclo[3.1.1]heptane]
< 100 nM	< 100 nM	C[C@@H]1CCCN1[C@@]1(C)CCc2ccc(-c3cnc4[nH]nc(-c5ccc(-c6ncccc6C#N)cc5)c4c3)cc2CC1 [Example 66, 2-(4-{5-[(7S)-7-Methyl-7-[(2R)-2-methylpyrrolidin-1-yl]-6,7,8,9-tetrahydro-5H-benzo[7]annulen-2-yl]-1H-pyrazolo[3,4-b]pyridin-3-yl}phenyl)pyridine-3-carbonitrile]
< 100 nM	< 100 nM	Cc1cc(F)cnc1-c1ccc(-c2c[nH]c3ncc(-c4ccc5c(c4)CC[C@@H](N4C6COCC4C6)CC5)cc23)nc1 [Example 35, 6-[(7S)-3-[3-[5-(5-Fluoro-3-methylpyridin-2-yl)pyridin-2-yl]-1H-pyrrolo[2,3-b]pyridin-5-yl]-6,7,8,9-tetrahydro-5H-benzo[7]annulen-7-yl]-3-oxa-6-azabicyclo[3.1.1]heptane]
< 100 nM	< 100 nM	Cc1ccc(C#N)nc1-c1ccc(-c2c[nH]c3ncc(-c4ccc5c(c4)CC[C@@H](N4C6COCC4C6)CC5)cc23)cc1 [Example 75, 5-Methyl-6-(4-{5-[(7S)-7-{3-oxa-6-azabicyclo[3.1.1]heptan-6-yl}-6,7,8,9-tetrahydro-5H-benzo[7]annulen-2-yl]-1H-pyrrolo[2,3-b]pyridin-3-yl}phenyl)pyridine-2-carbonitrile]
< 100 nM	< 100 nM	COc1ccnc(-c2ccc(-c3n[nH]c4ncc(-c5ccc6c(c5)CC[C@@H](N5C7COCC5C7)CC6)cc34)cc2)c1OC [Example 152, 6-[(7S)-2-{3-[4-(3,4-Dimethoxypyridin-2-yl)phenyl]-1H-pyrazolo[3,4-b]pyridin-5-yl}-6,7,8,9-tetrahydro-5H-benzo[7]annulen-7-yl]-3-oxa-6-azabicyclo[3.1.1]heptane]
100 to 1000 nM	< 100 nM	Cc1cnc(-c2ccc(-c3n[nH]c4ncc(-c5ccc6c(c5)CC[C@@H](N5CCCC5)CC6)cc34)cc2)c(C)n1 [Example 189, 3,5-Dimethyl-2-(4-{5-[(7S)-7-(pyrrolidin-1-yl)-6,7,8,9-tetrahydro-5H-benzo[7]annulen-2-yl]-1H-pyrazolo[3,4-b]pyridin-3-yl}phenyl)pyrazine]
